Counter-ions that a name gives are not always drawn.
Biological target: T1, SPNS2 (Mus musculus, UniProt Q91VM4)
T1 construct: expressed in transfected cells; host or cells: HeLa or U937 cells
T1 sequence (Q91VM4 1-549): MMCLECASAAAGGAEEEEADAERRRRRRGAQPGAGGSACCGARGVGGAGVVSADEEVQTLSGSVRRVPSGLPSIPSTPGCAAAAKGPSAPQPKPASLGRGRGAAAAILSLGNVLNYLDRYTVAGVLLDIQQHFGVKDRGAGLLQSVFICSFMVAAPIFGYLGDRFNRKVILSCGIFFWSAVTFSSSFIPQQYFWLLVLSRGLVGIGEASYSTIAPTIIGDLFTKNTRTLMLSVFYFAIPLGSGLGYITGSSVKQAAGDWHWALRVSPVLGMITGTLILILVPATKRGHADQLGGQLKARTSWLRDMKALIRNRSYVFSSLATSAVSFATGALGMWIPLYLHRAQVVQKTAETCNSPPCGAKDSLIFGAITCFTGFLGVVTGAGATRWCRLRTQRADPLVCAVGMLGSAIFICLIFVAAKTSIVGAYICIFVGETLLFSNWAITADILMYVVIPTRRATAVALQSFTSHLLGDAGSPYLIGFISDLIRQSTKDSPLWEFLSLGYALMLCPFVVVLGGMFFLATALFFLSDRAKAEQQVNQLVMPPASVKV
Experiment: S1P transporter assay: S1P release from whole cells expressing SPNS2
Format: cell-based
Details: HeLa or U937 cells expressing mouse SPNS2; 18 hours; S1P in media measured by LC-MS; read-out: IC50 (in vitro inhibition against SPNS2)
Description: Transporter assays are vectorial and therefore require measurement of the transported analyte in different compartments. The S1P transporter SPNS2 only exports S1P, which obviates measuring uptake of S1P into transporter-expressing cells. Thus, transporter activity was determined by quantifying S1P release from whole cells expressing SPNS2. SPNS2 inhibitor potency was assessed using whole cell assays. HeLa or U937 cells expressing mouse SPNS2 were used to determine inhibitor potency (IC50). Cells were plated onto 12 well plates and assayed when the cell monolayers became confluent. Cell growth media (RPMI-1640 containing 10% fetal bovine serum) was replaced with 2 mL of serum-free media (RPMI-1640) containing fatty acid free bovine serum albumin (BSA) (0.2% w/v) and supplemented with 4-deoxypyridoxine (DOP) (1 mM), NaF (2 mM), Na3VO4 (0.2 mM) to inhibit S1P degradation. Test articles (1×10-9-1×10^-4 M) were assayed in duplicate or triplicate. After 18 hours, media was collected, an internal recovery standard (0.005 mL of 5×10^-7 M deuterated (d7) S1P in methanol) was added, the BSA was precipitated with trichloroacetic acid and the bound S1P extracted with methanol. S1P and S1P-d7 were measured by liquid chromatography mass spectrometry. Inhibitor potency at the human SPNS2 ortholog was determined by an analogous assay using U-937 cells, which endogenously express human SPNS2.

CCCCCCCCCCc1ccc(-c2noc(CNC(=O)[C@@H](N)Cc3ccccc3)n2)cc1 [Compound 9ac, (S)-2-amino-N-((3-(4-decylphenyl)-1,2,4-oxadiazol-5-yl)methyl)-3-phenylpropanamide hydrochloride] and CCCCCCCCCCc1ccc(-c2noc(CNC(=O)[C@@H](N)CO)n2)cc1 [Compound 9s, (S)-2-amino-N-((3-(4-decylphenyl)-1,2,4-oxadiazol-5-yl)methyl)-3-hydroxypropanamide hydrochloride] cannot be ordered by IC50: > 2000 nM for the first, > 2000 nM for the second.

CCCCCCCCCCc1ccc(-c2noc(CNC(=O)[C@@H](N)CC(C)C)n2)cc1 [Compound 9ad, (S)-2-amino-N-((3-(4-decylphenyl)-1,2,4-oxadiazol-5-yl)methyl)-4-methylpentanamide hydrochloride] and CCCCCCCCCCc1ccc(-c2noc(CNC(=O)[C@@H](N)C(C)C)n2)cc1 [Compound 9f, (S)-2-amino-N-((3-(4-decylphenyl)-1,2,4-oxadiazol-5-yl)methyl)-3-methylbutanamide hydrochloride] cannot be ordered by IC50: > 2000 nM for the first, > 2000 nM for the second.

CCCCCCCCCCc1ccc(-c2noc(CNC(=O)[C@@H]3C[C@@H](F)CN3)n2)cc1 [Compound 9ae, (2S,4R)—N-((3-(4-decylphenyl)-1,2,4-oxadiazol-5-yl)methyl)-4-fluoropyrrolidine-2-carboxamide hydrochloride] and CCCCCCCCCCc1ccc(-c2noc(CNC(=O)[C@@H]3CCCN3)n2)cc1 [Compound 9m, (S)—N-((3-(4-decylphenyl)-1,2,4-oxadiazol-5-yl)methyl)pyrrolidine-2-carboxamide hydrochloride] cannot be ordered by IC50: > 2000 nM for the first, ≤ 2000 nM for the second.

CCCCCCCCCCc1ccc(-c2noc(CNC(=O)C3(N)CC3)n2)cc1 [Compound 9af, 1-amino-N-((3-(4-decylphenyl)-1,2,4-oxadiazol-5-yl)methyl)cyclopropane-1-carboxamide hydrochloride] and CCCCCCCCCCc1ccc(-c2noc(CNC(=O)CN)n2)cc1 [Compound 9b, 2-amino-N-((3-(4-decylphenyl)-1,2,4-oxadiazol-5-yl)methyl)acetamide hydrochloride] cannot be ordered by IC50: > 2000 nM for the first, > 2000 nM for the second.

CCCCCCCCCCc1ccc(-c2noc(CNC(=O)[C@@H]3CCCNC3)n2)cc1 [Compound 9ag, (R)—N-((3-(4-decylphenyl)-1,2,4-oxadiazol-5-yl)methyl)piperidine-3-carboxamide hydrochloride] and CCCCCCCCCCc1ccc(-c2noc(CNC(=O)[C@@H]3CCNC3)n2)cc1 [Compound 9j, (R)—N-((3-(4-decylphenyl)-1,2,4-oxadiazol-5-yl)methyl)pyrrolidine-3-carboxamide hydrochloride] cannot be ordered by IC50: ≤ 2000 nM for the first, ≤ 2000 nM for the second.

CCCCCCCCCCc1ccc(-c2noc(CNC(=O)[C@@H]3CC[C@@H](N)C3)n2)cc1 [Compound 9ah, (1R,3R)-3-amino-N-((3-(4-decylphenyl)-1,2,4-oxadiazol-5-yl)methyl)cyclopentane-1-carboxamide hydrochloride] and CCCCCCCCCCc1ccc(-c2noc(CNC(=O)[C@@H]3CCC[C@H](N)C3)n2)cc1 [Compound 9r, (1R,3S)-3-amino-N-((3-(4-decylphenyl)-1,2,4-oxadiazol-5-yl)methyl)cyclohexane-1-carboxamide hydrochloride] cannot be ordered by IC50: ≤ 2000 nM for the first, ≤ 2000 nM for the second.

CCCCCCCCCCc1ccc(-c2noc([C@@H]3CCN(C(=O)[C@@H](N)C(C)C)C3)n2)cc1 [Compound 9ai, (S)-2-amino-1-((R)-3-(3-(4-decylphenyl)-1,2,4-oxadiazol-5-yl)pyrrolidin-1-yl)-3-methylbutan-1-one 2,2,2-trifluoroacetate] and CCCCCCCCCCc1ccc(-c2noc([C@@H]3CCN(C(=O)[C@H](C)N)C3)n2)cc1 [Compound 9ak, (S)-2-amino-1-((R)-3-(3-(4-decylphenyl)-1,2,4-oxadiazol-5-yl)pyrrolidin-1-yl)propan-1-one 2,2,2-trifluoroacetate] cannot be ordered by IC50: ≤ 2000 nM for the first, ≤ 2000 nM for the second.

CCCCCCCCCCc1ccc(-c2noc([C@@H]3CCN(C(=O)[C@@H](N)CO)C3)n2)cc1 [Compound 9aj] and CCCCCCCCCCc1ccc(-c2noc([C@@H]3CCN(C(=O)CN)C3)n2)cc1 [Compound 9al, (R)-2-amino-1-(3-(3-(4-decylphenyl)-1,2,4-oxadiazol-5-yl)pyrrolidin-1-yl)ethan-1-one 2,2,2-trifluoroacetate] cannot be ordered by IC50: > 2000 nM for the first, > 2000 nM for the second.

CCCCCCCCCCc1ccc(-c2noc(CNC(=O)CN3CCNCC3)n2)cc1 [Compound 9c, N-((3-(4-decylphenyl)-1,2,4-oxadiazol-5-yl)methyl)-2-(piperazin-1-yl)acetamide hydrochloride] and CCCCCCCCCCc1ccc(-c2noc(CNC(=O)C[C@@H]3CCNC3)n2)cc1 [Compound 9k, (S)—N-((3-(4-decylphenyl)-1,2,4-oxadiazol-5-yl)methyl)-2-(pyrrolidin-3-yl)acetamide hydrochloride] cannot be ordered by IC50: > 2000 nM for the first, ≤ 2000 nM for the second.

CCCCCCCCCCc1ccc(-c2noc(CNC(=O)CCCN)n2)cc1 [Compound 9d, 4-amino-N-((3-(4-decylphenyl)-1,2,4-oxadiazol-5-yl)methyl)butanamide hydrochloride] and CCCCCCCCCCc1ccc(-c2noc(CNC(=O)CCCCN)n2)cc1 [Compound 9g, 5-amino-N-((3-(4-decylphenyl)-1,2,4-oxadiazol-5-yl)methyl)pentanamide hydrochloride] cannot be ordered by IC50: ≤ 2000 nM for the first, ≤ 2000 nM for the second.

CCCCCCCCCCc1ccc(-c2noc(CNC(=O)CCN)n2)cc1 [Compound 9e, 3-amino-N-((3-(4-decylphenyl)-1,2,4-oxadiazol-5-yl)methyl)propanamide hydrochloride] and CCCCCCCCCCc1ccc(-c2noc(CNC(=O)CNC)n2)cc1 [Compound 9l, N-((3-(4-decylphenyl)-1,2,4-oxadiazol-5-yl)methyl)-2-(methylamino)acetamide hydrochloride] cannot be ordered by IC50: > 2000 nM for the first, ≤ 2000 nM for the second.

CCCCCCCCCCc1ccc(-c2noc(CCNC(=O)CN)n2)cc1 [Compound 9h, 2-amino-N-(2-(3-(4-decylphenyl)-1,2,4-oxadiazol-5-yl)ethyl)acetamide hydrochloride] and CCCCCCCCCCc1ccc(-c2noc(CNC(=O)[C@@H](N)[C@@H](C)CC)n2)cc1 [Compound 9n, (2S,3S)-2-amino-N-((3-(4-decylphenyl)-1,2,4-oxadiazol-5-yl)methyl)-3-methylpentanamide hydrochloride] cannot be ordered by IC50: ≤ 2000 nM for the first, > 2000 nM for the second.

CCCCCCCCCCc1ccc(-c2noc(CNC(=O)[C@@H]3CCCCN3)n2)cc1 [Compound 9i, (S)—N-((3-(4-decylphenyl)-1,2,4-oxadiazol-5-yl)methyl)piperidine-2-carboxamide hydrochloride] and CCCCCCCCCCc1ccc(-c2noc(CNC(=O)C3CCNCC3)n2)cc1 [Compound 9p, N-((3-(4-decylphenyl)-1,2,4-oxadiazol-5-yl)methyl)piperidine-4-carboxamide hydrochloride] cannot be ordered by IC50: ≤ 2000 nM for the first, > 2000 nM for the second.

CCCCCCCCCCc1ccc(-c2noc(CNC(=O)C[C@@H]3CCCNC3)n2)cc1 [Compound 9o, (S)—N-((3-(4-decylphenyl)-1,2,4-oxadiazol-5-yl)methyl)-2-(piperidin-3-yl)acetamide hydrochloride] and CCCCCCCCCCc1ccc(-c2noc(CNC(=O)[C@H]3CNCCO3)n2)cc1 [Compound 9q, (R)—N-((3-(4-decylphenyl)-1,2,4-oxadiazol-5-yl)methyl)morpholine-2-carboxamide hydrochloride] cannot be ordered by IC50: > 2000 nM for the first, > 2000 nM for the second.

Reference: patent US20230373937A1, “INHIBITORS OF SPINSTER HOMOLOG 2 (SPNS2) FOR USE IN THERAPY” (University of Virginia Patent Foundation, priority 2020, published 2023)
